Assays:
PRMT4 = PRMT4 (Homo sapiens, UniProt Q86X55); settings: cited from earlier work
NOTCH1 = NOTCH1 protein level in brain, capillary-based immunoassay; assay type: in vivo, mouse; settings: aged 3xTg-AD female mice; TP-064 30 mg/kg, 7 days, IP or AAV knockdown
Method: NOTCH1 protein level in cortex, FIG. 13A, and hippocampus, FIG. 13B, was decreased in aged 3xTg-AD female mice v. male counterparts. Treatment with specific PRMT4 specific inhibitor (TP-064, 30 mg/kg, 7 days, IP) or AAV knockdown of PRMT4 enhanced NOTCH1 protein level in cortex, […], and hippocampus, […], in aged 3xTg-AD female mice. Relative NOTCH1 protein (˜110 kDa) level was measured by capillary-based immunoassay and normalized to total protein. * p<0.05 v. control male mice evaluated by unpaired t-test in FIGS. 13A and 13B. * p<0.05 compared to C57, #p<0.05 compared to 3xTg-AD+TP-064, $p<0.05 compared to 3xTg-AD+AAV, evaluated by one-way ANOVA with Tukey's post-hoc analyses in FIGS. 13C and 13D.
FIGS. 16A-16G show NOTCH1 inhibition (via crenigacestat) decreased ZO-1 and occluding and AAV knockdown of PRMT4 enhanced ZO-1 and occludin. […] C57 female mice. FIGS. 16B and 16C show crenigacestat (10 mg/kg, IP, 7 days) reduced NOTCH1 (110 kDa) protein level in the cortex and hippocampus of aged C57 female mice. AAV knockdown of PRMT4 increased NOTCH1 protein level. FIGS. 16D-16G show ZO-1 (220 kDa), and occludin (60 kDa) tight junctional proteins were decreased in the cortex and hippocampus in presence of NOTCH1 inhibitor in C57. PRMT4-AAV increased the expression of ZO-1 and occludin in aged 3xTg-AD female mice. Protein level was measured by capillary-based immunoassay and normalized to total protein. * p<0.05 compared to C57, #p<0.05 compared to 3xTg-AD, $p<0.05 compared to 3xTg-AD+AAV as evaluated by one-way ANOVA with Tukey's post-hoc analyses.
Capillary-phoresis immunoassay via ProteinSimple®: Quantification of all protein targets was achieved using Simple Western analysis in a Jess™ apparatus per the manufacturer's protocol (ProteinSimple, Bio-techne, Minneapolis, MN). […] Following homogenization and centrifugation (10,000×g, 5 min, 4° C.), protein concentration was determined in tissue protein supernatant samples using DC Protein Assay (Cat. No. 5000112, Bio-Rad Laboratories, Hercules, California) according to manufacturer instructions. […] Antibody diluent (ProteinSimple, Bio-techne, Minneapolis, MN) was used for all antibody dilutions as follows: PRMT4 (1:50, RRID: AB_2068436), PRMT6 (1:100, Cell Signaling Technology cat. 14641), eNOS (1:200, RRID: AB_10850618), nNOS (1:100, RRID: AB_2152488), iNOS (1:100, RRID: AB_10000625), DDAH2 (1:50, RRID: AB_2640442) Antibodies were detected using HRP-conjugated secondary anti-rabbit, and -mouse. Relative protein levels were calculated by measuring the area under the peak of a chemiluminescent chromatogram and normalized to total capillary chemiluminescence for a given sample. […]

C57BL/6J mice = assay: Regional cortical cerebral blood flow, laser speckle contrast imaging, C57 mice; assay type: in vivo, mouse
Method: Surgical Preparation and Anesthetic Procedure: Mice were anesthetized with 4% isoflurane (Cat. No. 21295098, Patterson Veterinary, Greeley, CO) and a mixture of O2 and N2O (30:70) via mask. Hair was shaved at the site of surgery (from the nape up to the eyes). Body temperature was maintained at 37° C. by a rodent heating pad with anal probe as a temperature reference (ThermoStar, RWD Life Science, San Diego, CA). Anesthesia was maintained by lowering isoflurane from 4% to 1%.
Thinned-skull preparation: Mice were placed in a stereotaxic frame to stabilize the skull and artificial tears (Patterson Veterinary, Greeley, CO) was applied in each eye. Dissection scissors and forceps were used to reveal the skull. A high-speed dental drill (RWD Life Science, San Diego, CA) was used to thin the skull creating a small window (1 mm in diameter) approximately 2 mm rostral and 1 mm lateral to the lambda, with saline irrigation to prevent overheating of the skull tissue. Laser speckle contrast imaging or two-photon laser scanning microscopy analyses were conducted following this preparation.
Laser speckle contrast imaging: Cerebral microvasculature was imaged by utilizing the thin skull preparation method. After thinning the skull, the mouse was placed in a stereotaxic apparatus. […]

[1] = Toxicity: blood counts, liver enzymes, kidney function; assay type: in vivo, mouse
Text: The inventors have on-going studies to screen for major organ toxicity. Plasma liver enzymes (ALT/AST) and kidney function were normal in TP-064-treated mice.

Sequence of PRMT4 (Q86X55 whole entry, species assumed): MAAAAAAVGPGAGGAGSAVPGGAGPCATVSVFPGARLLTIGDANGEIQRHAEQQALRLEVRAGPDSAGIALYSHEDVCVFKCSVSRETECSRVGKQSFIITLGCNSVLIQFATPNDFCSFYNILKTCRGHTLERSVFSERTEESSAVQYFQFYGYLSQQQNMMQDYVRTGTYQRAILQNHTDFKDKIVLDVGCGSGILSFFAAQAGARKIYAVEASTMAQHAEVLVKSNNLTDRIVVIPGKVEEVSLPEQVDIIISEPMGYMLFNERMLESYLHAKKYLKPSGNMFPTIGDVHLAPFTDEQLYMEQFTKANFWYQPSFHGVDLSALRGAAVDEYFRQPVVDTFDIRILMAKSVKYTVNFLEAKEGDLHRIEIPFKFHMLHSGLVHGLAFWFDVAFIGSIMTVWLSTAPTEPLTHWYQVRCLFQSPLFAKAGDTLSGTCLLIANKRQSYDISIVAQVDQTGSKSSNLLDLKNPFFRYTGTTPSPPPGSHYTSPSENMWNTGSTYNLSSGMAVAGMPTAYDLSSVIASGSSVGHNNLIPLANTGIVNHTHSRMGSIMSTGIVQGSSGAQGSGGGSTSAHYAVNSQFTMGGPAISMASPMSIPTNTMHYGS

## CNCCN1CCC(c2cc(CN(C)C(=O)c3cccc(Oc4ccccc4)c3)ccn2)CC1 [TP-064, N-Methyl-N-((2-(1-(2-(methylamino)ethyl)piperidin-4-yl)pyridin-4-yl)methyl)-3-phenoxybenzamide]
PRMT4
  selectivity over other histone methyltransferases and non-epigenetic targets: > 100 fold
NOTCH1
  NOTCH1 protein level in cortex: enhanced
  NOTCH1 protein level in hippocampus: enhanced
C57BL/6J mice; C57 mice, decreased PRMT4 via TP-064/PRMT4-AAV
  perfusion: did not affect
C57BL/6J mice; treated C57BL/6J mice, 30 mg/kg, IP, 7 days
  regional cortical CBF: 98.3±10.1%
[1]; mice treated 7 days
  complete blood counts: no abnormalities
[1]; treated mice
  Plasma liver enzymes (ALT/AST): normal
  kidney function: normal
